The target in assay [1] is kainate site (non-NMDA receptor). Description: Kainate site (non-NMDA receptor) binding affinity (London and Coyle method). The settings on record: Table 1, KA (kainate).
A further assay addresses AMPA receptors. The experiment in a line: AMPA receptor binding affinity (Honore et al. method). The settings on record: Table 1, AMPA.
The target of assay [2] is T1, glycine site of the NMDA receptor (Rattus norvegicus, UniProt P35439).
T1 construct: from tissue
The experiment in a line: Glycine site of the NMDA receptor binding affinity (Jones et al. method). As to conditions: Table 1, GLY (glycine site of NMDA receptor).

SMILES strings stand for the structures.

What is called IC50 is the concentration that inhibits the measured activity by half. Low readings indicate inhibition by little substance, high ones a need for much substance.

For the compound `Cc1c([N+](=O)[O-])cc2[nH]c(=O)c(=O)[nH]c2c1CN(C)C(=O)Nc1ccccc1` [Compound 1, 1-Methyl-1-(6-methyl-7-nitro-2,3-dioxo-1,2,3,4-tetrahydro-quinoxalin-5-ylmethyl)-3-phenyl-urea], the “IC50 KA” value in assay [1] turned out to be 820 nM. Moreover, the results for the IC50 (at AMPA receptors; in assay [2]) were 130 nM and 8 nM, respectively.
Regarding `COc1ccc(NC(=O)N(C)Cc2c(C)c([N+](=O)[O-])cc3[nH]c(=O)c(=O)[nH]c23)cc1` [Compound 2, 3-(4-Methoxy-phenyl)-1-methyl-1-(6-methyl-7-nitro-2,3-dioxo-1,2,3,4-tetrahydro-quinoxalin-5-ylmethyl)-urea], the “IC50 KA” value in assay [1] came to 1120 nM. For the same compound, the 50% inhibitory concentration (IC50) turned out to be 170 nM on AMPA receptors and 5 nM in assay [2].
In the same order, the values of `COc1ccc(NC(=S)N(C)Cc2c(C)c([N+](=O)[O-])cc3[nH]c(=O)c(=O)[nH]c23)cc1` [Compound 3, 3-(4-Methoxy-phenyl)-1-methyl-1-(6-methyl-7-nitro-2,3-dioxo-1,2,3,4-tetrahydro-quinoxalin-5-ylmethyl)-thiourea] are 2540 nM, 230 nM and 40 nM.
In the case of `Cc1ccc(NC(=O)N(C)Cc2c(C)c([N+](=O)[O-])cc3[nH]c(=O)c(=O)[nH]c23)c(C)c1` [Compound 4, 3-(2,4-Dimethyl-phenyl)-1-methyl-1-(6-methyl-7-nitro-2,3-dioxo-1,2,3,4-tetrahydro-quinoxalin-5-ylmethyl)-urea], the “IC50 KA” value in assay [1] stood at 6700 nM. The IC50 on AMPA receptors came to 3600 nM; in assay [2], 20 nM.
`COc1ccc(OC)c(NC(=O)N(C)Cc2c(C)c([N+](=O)[O-])cc3[nH]c(=O)c(=O)[nH]c23)c1` [Compound 5, 3-(2,5-Dimethoxy-phenyl)-1-methyl-1-(6-methyl-7-nitro-2,3-dioxo-1,2,3,4-tetrahydro-quinoxalin-5-ylmethyl)-urea]: the “IC50 KA” value in assay [1] came out at 9540 nM. Moreover, the IC50 is 3000 nM on AMPA receptors and 10 nM in assay [2].
In the same order, the values of `Cc1c([N+](=O)[O-])cc2[nH]c(=O)c(=O)[nH]c2c1CN(C)C(=O)Nc1ccccc1C(F)(F)F` [Compound 6, 1-Methyl-1-(6-methyl-7-nitro-2,3-dioxo-1,2,3,4-tetrahydro-quinoxalin-5-ylmethyl)-3-(2-trifluoromethyl-phenyl)-urea] are 7500 nM, 2850 nM and 10 nM.
For the compound `CCOC(=O)c1ccc(NC(=O)N(C)Cc2c(C)c([N+](=O)[O-])cc3[nH]c(=O)c(=O)[nH]c23)cc1` [Compound 7, 4-(3-Methyl-3-(6-methyl-7-nitro-2,3-dioxo-1,2,3,4-tetrahydro-quinoxalin-5-ylmethyl)ureido)-benzoic acid ethyl ester], the “IC50 KA” value in assay [1] amounted to 18400 nM. Besides, the IC50 on AMPA receptors came out at 4110 nM; in assay [2], 10 nM.
